Data set [1] relates to M. tuberculosis Erdman strain. Format: cell-based.
The subject of data set [2] is M. tuberculosis Erdman strain. The data set is classed as cell-based. To be noted: 6 weeks, O.D.; for inhibition of M. tuberculosis in the presence of antibiotic (in words): 10 μM plus ethambutol 5 μg/ml; for M. tuberculosis growth in the absence of antibiotic (in words): 10 μM.
The subject of data set [3] is M. tuberculosis. Format: cell-based. Conditions: log reduction in CFU vs untreated control or MM-PS-ODN cultures; 10 μM, added once at start.
Data set [4] concerns M. tuberculosis Erdman glutamine synthetase. Conditions: 20 μM; Harth et al. 1999; cited from earlier work.
Data set [5] concerns M. tuberculosis Erdman. To be noted: Harth et al. 1999, cited from earlier work.
Data set [6] relates to poly-L-glutamate/glutamine in the cell wall of M. tuberculosis. To be noted: 20 μM; Harth et al. 1999; cited from earlier work.
Data set [7] has as its system M. tuberculosis Erdman. Format: cell-based.
For data set [8], the system named is M. smegmatis 1-2c. Briefly: microbe, parasite or virus in culture. Conditions: Mycolicibacterium smegmatis, 12C.
For data set [9], the system named is M. tuberculosis Erdman. In words: microbe, parasite or virus in culture. Conditions: Mycobacterium tuberculosis.
Data set [10] concerns M. smegmatis 1-2c.
Data set [11] concerns M. tuberculosis Erdman.

≈ marks a conversion by molar mass, not a printed value. Read-outs that look alike come from different tables or passages of the source. In the oligonucleotide strings, read from the 5' end, every base follows the letter of its sugar. An asterisk marks phosphorothioate; unmarked linkages are phosphodiester. Other units and linkages are bracketed, terminal groups are in braces. A string of capitals states the bases alone. Bridge positions count the residues as written; N and C are the ends. Square brackets hold non-standard residues; d marks the D form. Peptide text beside a SMILES is read from it. {FL} = fluorescein label; Dab = NCC[C@H](N)C(=O)O; d = 2'-deoxy (DNA); m = 2'-O-methyl

In the case of “5-GAACGCCGGGGTGTTGATGTCCCAGCCG (SEQ ID NO: 14) [ML10]”, the “inhibition of M. tuberculosis growth in the presence of ethambutol, added only once” value in data set [1] (10 μM plus ethambutol 5 μg/ml, 9 weeks) was “slightly enhanced the inhibition”. In addition, in data set [1] (10 μM, no antibiotic, 9 weeks, O.D.), the “M. tuberculosis growth relative to control, added only once at the start” value was “slightly inhibited”. Also, the “M. tuberculosis growth relative to control, added weekly for 9 weeks” value in data set [1] (10 μM, no antibiotic, O.D.) is recorded as “inhibited”.
For “5′-CACCTTCGCCACGATTGGAGCCCTCCA (SEQ ID NO: 13) (phosphorothioate, further chemistry not given here; listed as Mycobacterium tuberculosis) [Val 41, PS-ODN against nucleotides −15 to 12 of the groES gene]”, in data set [2], the “inhibition of M. tuberculosis in the presence of antibiotic (in words)” value (from here on “inhibition of M. tuberculosis … (in words)”) is given as “enhanced the inhibition” and the “M. tuberculosis growth in the absence of antibiotic (in words)” value (from here on “M. tuberculosis growth in the absence”) is on record as “did not inhibit”.
The like results for “5′-CCATGTCTTCACCGCTTCATCCTG (SEQ ID NO: 10) [Val 26]” were, in that order, “enhanced the inhibition” and “did not inhibit”.
As for “5′-CGCTTCATCCTGCCGTGTCGG (SEQ ID NO: 8) [Val 24]”, in data set [2], the “inhibition of M. tuberculosis … (in words)” value is on record as “enhanced the inhibition” and the “M. tuberculosis growth in the absence” value is recorded as “did not inhibit”.
The corresponding values for “5′-TGCCGCAGCCACGGCGACGGCCGTGGT (SEQ ID NO: 11) [Val 33]” are “enhanced the inhibition” and “inhibited”.
Regarding “5′-TGCCGCAGCCACGGCGACGGCCGTGGTGTCCGAACC (SEQ ID NO: 12) [Val 34]”, in data set [2], the “inhibition of M. tuberculosis … (in words)” value is listed as “enhanced the inhibition” and the “M. tuberculosis growth in the absence” value is reported as “inhibited”.
For the compound “5′-TGGCCATGTCTTCACCGCTTCATCCTG (SEQ ID NO: 9) [Val 25]”, in data set [2], the “M. tuberculosis growth in the absence” value was “did not inhibit”.
Take “5′-TGGGGCTGGCCATGTCTTCAC-3′ (SEQ ID NO: 7) [Val 23]”: in data set [2], the “inhibition of M. tuberculosis … (in words)” value is “enhanced the inhibition” and the “M. tuberculosis growth in the absence” value is listed as “inhibited”.
Consider “5′>2′OMeACGAAC-CCTGTCAACAAG-2′OMeCTGCAT (antisense ACGAACCCTGTCAACAAGCTGCAT; sugars from the 5' end m6 d12 m6, all phosphorothioate, T or U not given here) [fbpA (SEQ ID NO: 26), antisense PS-ODN against fbpA with O-methyl groups at the 5′ and 3′ ends]”, for which, in data set [3], the “log Reduction” value is given as 0.4 log.
Consider “5′>2′OMeATTCTT-TCGGCTCACGTC-2′OMeTGTCAT [fbpB (SEQ ID NO: 25)]”, for which the “log Reduction” value in data set [3] was 0.4 log.
On the same count and under the same terms, for “5′>AACGAATTCCTTCTGTCGGTCCAT (dA*dA*dC*dG*dA*dA*dT*dT*dC*dC*dT*dT*dC*dT*dG*dT*dC*dG*dG*dT*dC*dC*dA*dT; antisense) [glnA2]” the value was 0.05-0.1 log; for “5′>AACGGGAGTGACACGTGATTCCAT (dA*dA*dC*dG*dG*dG*dA*dG*dT*dG*dA*dC*dA*dC*dG*dT*dG*dA*dT*dT*dC*dC*dA*dT) [mas]”, 0.35 log; for “5′>AATCCGGCTGAAAGCCGTTCGCATCAC (dA*dA*dT*dC*dC*dG*dG*dC*dT*dG*dA*dA*dA*dG*dC*dC*dG*dT*dT*dC*dG*dC*dA*dT*dC*dA*dC; antisense) [ppsB]”, 0 log.
Still for that read-out and setting: the value for “5′>AATGATTTCTTCCTGAGTGACAGGCAC (dA*dA*dT*dG*dA*dT*dT*dT*dC*dT*dT*dC*dC*dT*dG*dA*dG*dT*dG*dA*dC*dA*dG*dG*dC*dA*dC; antisense) [acpM]” was 0 log.
Same read-out and setting: for “5′>ACGAACCCTGTCAACAAGCTGCAT-GGGGG (antisense dA*dC*dG*dA*dA*dC*dC*dC*dT*dG*dT*dC*dA*dA*dC*dA*dA*dG*dC*dT*dG*dC*dA*dT*dG*dG*dG*dG*dG) [fbpA (SEQ ID NO: 27), antisense PS-ODN against fbpA with five Gs attached to the 3′ end]” the value was 0.8 log; for “5′>CAAGATGGACACCGTCACCGCTAC (dC*dA*dA*dG*dA*dT*dG*dG*dA*dC*dA*dC*dC*dG*dT*dC*dA*dC*dC*dG*dC*dT*dA*dC; antisense) [murX]”, 0 log; for “5′>CACATCCAGCGACTTGGCCAGCTC (dC*dA*dC*dA*dT*dC*dC*dA*dG*dC*dG*dA*dC*dT*dT*dG*dG*dC*dC*dA*dG*dC*dT*dC; antisense) [rfbE]”, 0 log.
Turning to “5′>CGCCGCGCGCTCCGCCAGACTTGTCAT (dC*dG*dC*dC*dG*dC*dG*dC*dG*dC*dT*dC*dC*dG*dC*dC*dA*dG*dA*dC*dT*dT*dG*dT*dC*dA*dT; antisense) [ppsD]”, the “log Reduction” value in data set [3] came to 0 log.
On the same count and under the same terms, the value for “5′>CGCGATCGCGTTCTCGGGGATGCTCAC (dC*dG*dC*dG*dA*dT*dC*dG*dC*dG*dT*dT*dC*dT*dC*dG*dG*dG*dG*dA*dT*dG*dC*dT*dC*dA*dC; antisense) [ppsE]” was 0 log; that for “5′>CGGCCCTGCATGTCGGTGAACGCG (dC*dG*dG*dC*dC*dC*dT*dG*dC*dA*dT*dG*dT*dC*dG*dG*dT*dG*dA*dA*dC*dG*dC*dG; antisense) [glnA4]” was 0 log.
As to “5′>FL-GCCGGGGTGTTGATATCCCAGCCG (5' {FL}, sugars by position and backbone not given here) [fbpB (SEQ ID NO: 24), antisense PS-ODN against fbpB (30 kDa protein gene) with fluorescein attached to the 5′ end]”, the “log Reduction” value in data set [3] is recorded as 0.6 log.
In the case of “5′>GACATTCTCCCAGAACCGTTTCAC (chemistry not given here) [air, antisense PS-ODN against the alr gene (alanine racemase) transcript]”, the “log Reduction” value in data set [3] came to 0.2 log.
On the same count and under the same terms, the value for “5′>GCACGGTCTTGGCCTGGGTGAGTC (dG*dC*dA*dC*dG*dG*dT*dC*dT*dT*dG*dG*dC*dC*dT*dG*dG*dG*dT*dG*dA*dG*dT*dC; antisense) [glnA3]” was 0 log.
Same read-out and setting: the value for “5′>GCCATTAGCGGTGGAAGGCTGACTCAC (dG*dC*dC*dA*dT*dT*dA*dG*dC*dG*dG*dT*dG*dG*dA*dA*dG*dG*dC*dT*dG*dA*dC*dT*dC*dA*dC; antisense) [kasA]” was 0 log.
On the same count and under the same terms, for “5′>GCTCTGAAACGTGCCGGTCTGAAC (dG*dC*dT*dC*dT*dG*dA*dA*dA*dC*dG*dT*dG*dC*dC*dG*dG*dT*dC*dT*dG*dA*dA*dC; antisense) [fadD26]” the value was 0.65 log; for “5′>GGACACCTCGAGACCGTACTGCAC (dG*dG*dA*dC*dA*dC*dC*dT*dC*dG*dA*dG*dA*dC*dC*dG*dT*dA*dC*dT*dG*dC*dA*dC) [rfe]”, 0.25 log.
With “5′>TC(c->g)GCGATCTGGTGTCGCTGCGGTCAT (phosphorothioate, 5' TC(c->g) prefix, further chemistry not given here) [ppsC]”, the “log Reduction” value in [3] worked out at 0 log.
As for “5′>TTCACCACTGATGCTTCCCGTCAT (dT*dT*dC*dA*dC*dC*dA*dC*dT*dG*dA*dT*dG*dC*dT*dT*dC*dC*dC*dG*dT*dC*dA*dT; antisense) [ppsA]”, the “log Reduction” value in [3] was 0 log.
Same read-out and setting: the value for “5′>TTTGCCGTCCAGCAGTCCTGTCAT (chemistry not given here) [lnhA]” was 0.05 log.
On to `CS(=N)(=O)CC[C@H](N)C(=O)O` (stereo partly drawn) [L-methionine-S-sulfoximine], for which the “reduction of extracellular glutamine synthetase activity” value in data set [4] is given as 80%. For the same compound, the “inhibition of bacterial growth” value in data set [5] (2 μM) is 1.5-2 log units. Further, the “reduction of bacterial growth” value in [5] (20 μM) was at least 2.5 log units. The “reduction of the amount of the poly-L-glutamate/glutamine cell wall structure” value in data set [6] is on record as 93%.
With `NCC[C@H](O)C(=O)N[C@@H]1C[C@H](N)[C@@H](O[C@H]2O[C@H](CN)[C@@H](O)[C@H](O)[C@H]2O)[C@H](O)[C@H]1O[C@H]1O[C@H](CO)[C@@H](O)[C@H](N)[C@H]1O` [amikacin, reference compound], the results for the “antibacterial effect of free antibiotic (in words)” value in [7] (1 μM) and in data set [7] (5.8 μg per ml (10 μM)) were “bacteriostatic” and “strongly bactericidal”, respectively.
With `CC[C@@H](CO)NCCN[C@@H](CC)CO` [ethambutol], the MIC in data set [8] is around 10 µg/mL (≈ 48.9 µM); in data set [9], around 5 µg/mL (≈ 24.5 µM).
With `CC(C)C[C@@H]1NC(=O)[C@@H](Cc2ccccc2)NC(=O)[C@H](CCN)NC(=O)[C@@H](NC(=O)[C@H](CCN)NC(=O)[C@@H](N)[C@@H](C)O)CCNC(=O)[C@H]([C@@H](C)O)NC(=O)[C@H](CCN)NC(=O)[C@H](CCN)NC1=O` [polymyxin B nonapeptide] (H-T[Dab][Dab][Dab][dF]L[Dab][Dab]T; lactam 3-C; N-terminus assumed), the MIC in [10] and in data set [11] was around 5 µg/mL (≈ 5.19 µM) throughout.

Values taken from patent US20060183676A1, “Treatment of mycobacterium tuberculosis with antisense oligonucleotides” (priority 2001, published 2006).
